≈ marks a conversion by molar mass, not a printed value. Like-named read-outs stand apart in the source and are kept apart here. Positions of bridges follow the written chain, without caps; N, C: chain ends. Non-standard residues stand in square brackets, D forms with d. Residues, ends and D or L forms follow the SMILES beside them. *: point of attachment. Benzoyl(4-(4-Cl-Ph)) = O=C(c1ccc(-c2ccc(Cl)cc2)cc1)*; Benzoyl(4-Ph) = O=C(c1ccc(-c2ccccc2)cc1)*; Butanoyl(4-Ph) = O=C(CCCc1ccccc1)*; Nonanoyl = CCCCCCCCC(=O)*; Dab = NCC[C@H](N)C(=O)O; Abu = CC[C@H](N)C(=O)O; Dap = NC[C@H](N)C(=O)O
Tests used:
Enterobacter cloacae = system: Enterobacter cloacae
In short: (§1)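 Minimum inhibitory concentrations come from CLSI-standard broth microdilution in cation-adjusted Mueller-Hinton broth.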

Acinetobacter baumannii = system: Acinetobacter baumannii
In short: as §1

Klebsiella pneumoniae = system: Klebsiella pneumoniae
In short: as §1

Pseudomonas aeruginosa = system: Pseudomonas aeruginosa
In short: as §1

P. aeruginosa ATCC 27853 = test: In vivo efficacy in mouse blood infection model (neutropenic Swiss mice); details: compound, free base 4 mg/kg intravenously 2 h after inoculation, blood at 4 h
In short: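 Neutropenic Swiss mice (cyclophosphamide 150 mg/kg day −4, 100 mg/kg day −1, i.p.) infected i.v. with early log-phase bacteria; 4 mg/kg free base i.v. given 2 h post-inoculation. Blood CFU by cardiac puncture 4 h post-dose; Δlog10 CFU/mL treated versus saline controls.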

[1] = Enterobacter cloacae FADDI-EC001, broth microdilution in CAMHB, TFA salt
[2] = Enterobacter cloacae FADDI-EC003, broth microdilution in CAMHB, TFA salt
[3] = Enterobacter cloacae FADDI-EC006, broth microdilution in CAMHB, TFA salt
[4] = Acinetobacter baumannii ATCC 17978, broth microdilution in CAMHB, TFA salt
[5] = Acinetobacter baumannii ATCC 19606, broth microdilution in CAMHB, TFA salt
[6] = Acinetobacter baumannii FADDI-AB034, broth microdilution in CAMHB, TFA salt
[7] = Pseudomonas aeruginosa ATCC 27853, broth microdilution in CAMHB, TFA salt
[8] = Pseudomonas aeruginosa FADDI-PA022, broth microdilution in CAMHB, TFA salt
[9] = Pseudomonas aeruginosa FADDI-PA025, broth microdilution in CAMHB, TFA salt

Row | Structure (SMILES) | Minimum inhibitory concentration (MIC), Ec FADDI-EC001 (Enterobacter cloacae; [1]) | Minimum inhibitory concentration (MIC), Ec FADDI-EC003 (Enterobacter cloacae; [2]) | Minimum inhibitory concentration (MIC), Ec FADDI-EC006 (Enterobacter cloacae; [3]) | MIC (Acinetobacter baumannii; A. baumannii ATCC 19606) | Minimum inhibitory concentration (MIC), Ab ATCC 17978 (Acinetobacter baumannii; [4]) | Minimum inhibitory concentration (MIC), Ab ATCC 19606 (Acinetobacter baumannii; [5]) | Minimum inhibitory concentration (MIC), Ab FADDI-AB034 (Acinetobacter baumannii; [6]) | MIC (Klebsiella pneumoniae; K. pneumoniae FADDI-KP032) | MIC (Pseudomonas aeruginosa; P. aeruginosa ATCC 27853) | Minimum inhibitory concentration (MIC), Pa ATCC 27853 (Pseudomonas aeruginosa; [7]) | Minimum inhibitory concentration (MIC), Pa FADDI-PA022 (Pseudomonas aeruginosa; [8]) | Minimum inhibitory concentration (MIC), Pa FADDI-PA025 (Pseudomonas aeruginosa; [9]) | Δ log (Treated-Control at 4 h) (P. aeruginosa ATCC 27853) | Minimum inhibitory concentration (MIC), Ec FADDI-EC001 (Enterobacter cloacae) | Minimum inhibitory concentration (MIC), Ec FADDI-EC003 (Enterobacter cloacae) | Minimum inhibitory concentration (MIC), Ec FADDI-EC006 (Enterobacter cloacae) | MIC (Acinetobacter baumannii) | Minimum inhibitory concentration (MIC), Ab ATCC 17978 (Acinetobacter baumannii) | Minimum inhibitory concentration (MIC), Ab ATCC 19606 (Acinetobacter baumannii) | Minimum inhibitory concentration (MIC), Ab FADDI-AB034 (Acinetobacter baumannii) | also measured
1 | CC[C@@H]1NC(=O)[C@@H](CC(C)C)NC(=O)[C@H](CCN)NC(=O)[C@@H](NC(=O)[C@H](CN)NC(=O)[C@@H](NC(=O)[C@H](CCN)NC(=O)c2ccc(-c3ccccc3)cc2)[C@@H](C)O)CCNC(=O)[C@H]([C@@H](C)O)NC(=O)[C@H](CCN)NC(=O)[C@H](CCN)NC1=O [Compound 142] ({Benzoyl(4-Ph)}-[Dab]T[Dap][Dab][Dab][dL][Abu][Dab][Dab]T; lactam 4-C) | 0.25 µg/mL | 1 µg/mL | 0.5 µg/mL | 1 µg/mL (≈ 0.857 µM) | 0.5 µg/mL | 1 µg/mL | 0.25 µg/mL | 0.25 µg/mL (≈ 0.214 µM) | 1 µg/mL (≈ 0.857 µM) | 1 µg/mL | 1 µg/mL | 1 µg/mL | −3.89 log10 CFU/mL | – | – | – | – | – | – | – | –
2 | CCCCCCCCC(=O)N[C@@H](CCN)C(=O)N[C@H](C(=O)N[C@@H](CN)C(=O)N[C@H]1CCNC(=O)[C@H]([C@@H](C)O)NC(=O)[C@H](CCN)NC(=O)[C@H](CCN)NC(=O)[C@H](CO)NC(=O)[C@@H](Cc2ccccc2)NC(=O)[C@H](CCN)NC1=O)[C@@H](C)O [Compound 143] (Nonanoyl-[Dab]T[Dap][Dab][Dab][dF]S[Dab][Dab]T; lactam 4-C) | – | – | – | – | – | – | – | – | – | – | – | – | −3.47 log10 CFU/mL | 1 µg/mL (≈ 0.86 µM) | 0.5 µg/mL (≈ 0.43 µM) | 0.5 µg/mL (≈ 0.43 µM) | 1 µg/mL (≈ 0.86 µM) | 1 µg/mL (≈ 0.86 µM) | 1 µg/mL (≈ 0.86 µM) | 0.5 µg/mL (≈ 0.43 µM) | MIC (Klebsiella pneumoniae): 0.25 µg/mL (≈ 0.215 µM); MIC (Pseudomonas aeruginosa): 0.5 µg/mL (≈ 0.43 µM); Minimum inhibitory concentration (MIC), Pa ATCC 27853 (Pseudomonas aeruginosa): 0.5 µg/mL (≈ 0.43 µM); Minimum inhibitory concentration (MIC), Pa FADDI-PA022 (Pseudomonas aeruginosa): 0.5 µg/mL (≈ 0.43 µM); Minimum inhibitory concentration (MIC), Pa FADDI-PA025 (Pseudomonas aeruginosa): 16 µg/mL (≈ 13.8 µM)
3 | CC(C)C[C@H]1NC(=O)[C@H](CCN)NC(=O)[C@@H](NC(=O)[C@H](CN)NC(=O)[C@@H](NC(=O)[C@H](CCN)NC(=O)c2ccc(-c3ccc(Cl)cc3)cc2)[C@@H](C)O)CCNC(=O)[C@H]([C@@H](C)O)NC(=O)[C@H](CCN)NC(=O)[C@H](CCN)NC(=O)[C@H](C)NC1=O [Compound 144] ({Benzoyl(4-(4-Cl-Ph))}-[Dab]T[Dap][Dab][Dab][dL]A[Dab][Dab]T; lactam 4-C) | 2 µg/mL | 1 µg/mL | 1 µg/mL | 1 µg/mL (≈ 0.842 µM) | 1 µg/mL | 1 µg/mL | 0.5 µg/mL | 1 µg/mL (≈ 0.842 µM) | 1 µg/mL (≈ 0.842 µM) | 1 µg/mL | 2 µg/mL | 1 µg/mL | −2.98 log10 CFU/mL | – | – | – | – | – | – | – | –
4 | CC(C)C[C@H]1NC(=O)[C@H](CCN)NC(=O)[C@@H](NC(=O)[C@H](CN)NC(=O)[C@@H](NC(=O)[C@H](CCN)NC(=O)CCCc2ccccc2)[C@@H](C)O)CCNC(=O)[C@H]([C@@H](C)O)NC(=O)[C@H](CCN)NC(=O)[C@H](CCN)NC(=O)[C@H](C)NC1=O [Compound 146] ({Butanoyl(4-Ph)}-[Dab]T[Dap][Dab][Dab][dL]A[Dab][Dab]T; lactam 4-C) | – | – | – | – | – | – | – | – | – | – | – | – | −3.63 log10 CFU/mL | 0.5 µg/mL (≈ 0.447 µM) | 0.25 µg/mL (≈ 0.223 µM) | 0.5 µg/mL (≈ 0.447 µM) | 4 µg/mL (≈ 3.57 µM) | 1 µg/mL (≈ 0.893 µM) | 4 µg/mL (≈ 3.57 µM) | 2 µg/mL (≈ 1.79 µM) | MIC (Klebsiella pneumoniae): 0.5 µg/mL (≈ 0.447 µM); MIC (Pseudomonas aeruginosa): 0.5 µg/mL (≈ 0.447 µM); Minimum inhibitory concentration (MIC), Pa ATCC 27853 (Pseudomonas aeruginosa): 0.5 µg/mL (≈ 0.447 µM); Minimum inhibitory concentration (MIC), Pa FADDI-PA022 (Pseudomonas aeruginosa): 0.5 µg/mL (≈ 0.447 µM); Minimum inhibitory concentration (MIC), Pa FADDI-PA025 (Pseudomonas aeruginosa): >32 µg/mL

Reference: USRE48335E1, “Polymyxin derivatives as antimicrobial compounds” (priority 2014, dated 2020)
